# Results from US12515027B2, “Subcutaneous biodegradable reservoir device” (Research Triangle Institute, priority 2018, dated 2026).
# Values joined by “and” are separate entries in the source; they are usually repeats but may differ in a detail not shown here. Identical values can stand only once.
# Experiments:
# [1] = rhesus monkey, in vivo; cited from earlier work
# [2] = Chromatographic purity (stability) of formulation inside implant after in-vitro exposure (UPLC/UV); format: physicochemical
# [3] = In vitro release from PCL reservoir implants in PBS pH 7.4 at 37 °C (UV-Vis); format: physicochemical; details: for Daily RR: PCL 89 kDa
# Method: The implants were incubated in 1×PBS (pH 7.4) at 37° C. Drug quantity released in media was measured via UV-Vis three times per week during which the implants were transferred to fresh buffer to maintain sink conditions. Drug concentrations were determined by correlating UV absorbance values to a standard curve. Standard curves involved measuring peak absorbance values as a function of drug concentrations diluted by half from bulk solutions. Peak absorbance values were determined by scanning the dilute drug solutions from 230 to 700 nm at a step size of 1 nm and assessing the maximum UV absorbance value.
# Testing was performed to evaluate release kinetics of varying formulations of active agent and excipient. In particular, the release mechanism and release profiles for TAF formulated with varying mass quantities of castor oil from extruded PCL tubes was evaluated. Heat extruded PCL devices were fabricated (2.5 mm×40 mm) using 80 kDa Sigma grade PCL. […] For the in vitro release studies, devices were incubated in 40 mL of phosphate buffered saline (PBS) at pH 7.4 in a shaking incubator at 37° C. The implants were transferred to fresh buffer three times per week to maintain sink conditions.
# Testing was performed to evaluate the in vitro release profile for an exemplary segmented device. In-vitro conditions included a simulated physiological media of a salt solution at pH between 6.5 and 7.5 at a temperature of 37° C. The exemplary device was engineered to release two APIs simultaneously, both at zero-order release kinetics. The device was fabricated with a segmented architecture that contained LNG formulated with ethyl oleate at a 1:4 ratio and EFdA formulated with castor oil at a 1:1 ratio and housed in separate compartments within a single implant design. Different segment lengths, polymer membrane thicknesses and polymer properties were tested.
# In vitro release characterization involved incubation of the implants in 40 mL 1× phosphate buffered saline (PBS) (pH 7.4) at 37° C. and placed on an orbital shaker. […] The release buffer was sampled three times per week during which the devices were transferred to 40 mL of fresh buffer to maintain sink conditions. TAF quantity released in each PBS buffer during the time interval was calculated and cumulative mass of drug release as a function of time was determined.
# physchem = details: 37 °C, organic solvent or mixture, thermodynamic from solid, Solubility
# Method: Over a 24-hour period, the solutions were mixed periodically and returned to the water bath. After approximately 72 hours, the solutions were removed from the water bath and appearance recorded for each of the saturated solutions. […] The supernatants were prepared for analysis by UPLC. Triplicate weighed aliquots were prepared from the collected supernatants and analyzed for assay using a UPLC/UV method. The analysis was performed using a Waters BEH C18 column (2.1 mm×50 mm, 1.7 μm) under gradient, reversed phase conditions with detection at 260 nm. The saturated solutions were quantitated by linear regression analysis against a 5-point calibration curve.
# Testing using the same methodology was performed for EFdA, LNG, and ENG using various excipients.
# [4] = In vivo study of one or two subcutaneous PC12 implants, 90 days (Example 20); parameters: species or system New Zealand white rabbits; details: hormone in subcutaneous implant
# Method: In vivo analysis was performed with 20 naïve New Zealand white rabbits. […] In particular, female NZW rabbits each received two subcutaneous implants bilaterally inserted into the subscapular region: (1) one implant that contained an ARV drug and (2) one implant that contained a hormonal contraceptive drug. Both implants remained in the subcutaneous space for 90 days. Blood samples were taken at 0, 1, 3, 7, […], 45, 60, 75, and 90 days. After 90 days, the animals were euthanized, and the implants were retrieved. Tissues were collected and analyzed for levels of ARVs (TFV, TAF, and TFV-DP). As a comparator for the dual insertion modality, each female NZW rabbit in a separate group received a single implant, where each implant contained a single drug formulation: either ARV or hormone. The implant remained in the subcutaneous space for 90 days. Blood samples were taken at 0, 1, 3, 7, 15, 30, 45, 60, 75, and 90 days. After 90 days, the animals were euthanized, and the implants were retrieved. Tissues were collected and analyzed for levels of ARVs (TFV, TAF, and TFV-DP). The polymer was PC12.
# [5] = Evaluation of Elvitegravir for use in the device
# Method: Elvitegravir, which is marketed by Gilead, was also evaluated.
smiles,measurement,setting,value
"CC(Cn1cnc2c(N)ncnc21)OCP(=O)(O)OP(=O)(O)OP(=O)(O)O (stereo in doubt) [TFV-DP, tenofovir diphosphate]",duration of sustained levels in PBMCs,[1],83 days
C#C[C@]1(CO)O[C@@H](n2cnc3c(N)nc(F)nc32)C[C@@H]1O [EFdA],% Purity at Day-365,[2]; EFdA with castor oil,99.3%
same,% Purity at Day-365,[2]; EFdA with ethyl oleate,99.4%
same,% Purity at Day-365,[2]; EFdA with glycerol,99.5%
same,% Purity at Day-365,[2]; EFdA with propylene glycol,99.5%
same,% Purity at Day-365,[2]; EFdA with sesame oil,99.3%
same,stability within an exemplary implant,[2]; after 1 year in in-vitro conditions,~99%
same,purity after 1 year of exposure to in-vitro conditions,"[2]; all EFdA implants, Day-365",> 99%
same,release rate for the glycerol device,"[3]; 70 μm wall, FIG. 11C study",30 μg of EFdA/day
same,release rate for the sesame oil device,"[3]; 70 μm wall, FIG. 11C study",8 μg of EFdA/day
same,duration of sustained linear release,"[3]; EFdA castor oil devices, 70 μm, medical grade PCL",1 year
same,exposure after which release deviated from zero-order,[3]; EFdA formulations other than castor oil,> 200 days
same,duration of zero-order kinetics,[3]; EFdA segment of segmented implant,1 year
same,"duration of sustained, zero order release","[3]; EFdA with varying excipients, 70 μm wall",over 60 days
same,duration of sustained zero-order release,"[3]; EFdA-castor oil devices, 80 KDa PCL, 70 μm wall",200 days
same,"Release Rate (μg/day, 10 mm device)","[3]; EFdA:castor oil 1:1, 70 μm wall",10 µg/day and 10.0 µg/day
same,"Release Rate (μg/day, 10 mm device)","[3]; EFdA:ethyl oleate 1:1, 70 μm wall",13.0 µg/day
same,"Release Rate (μg/day, 10 mm device)","[3]; EFdA:glycerol 1:1, 70 μm wall",15 µg/day and 15.0 µg/day
same,"Release Rate (μg/day, 10 mm device)","[3]; EFdA:propylene glycol 1:1, 70 μm wall",11.0 µg/day
same,"Release Rate (μg/day, 10 mm device)","[3]; EFdA:sesame oil 1:1, 70 μm wall",12.0 µg/day
same,duration of sustained linear release,"[3]; exemplary EFdA formulations, summary statement",over 1 year
same,release profile / release rate,"[3]; exemplary formulations/devices, summary statement",5 to 30 µg/day
same,duration of zero-order release,[3]; segmented implant LNG/EFdA,6 months
same,release rate of segment,"[3]; segmented implant: LNG:ethyl oleate 1:4 and EFdA:castor oil 1:1, 70 μm wall, EFdA after burst of first 10 days",~20 µg/day
same,solubility at 72 h,physchem,34.9 mg/mL
"C#C[C@]1(O)CC[C@H]2[C@@H]3CCC4=CC(=O)CC[C@@H]4[C@H]3C(=C)C[C@@]21CC [ENG, Etonogestrel]",% Purity at 180 Days,"[2]; after 180-day in-vitro exposure, 200 μm implants per b165 (second listing in Table 5)",99%
same,stability within an exemplary implant,[2]; tested at 180 days in in-vitro conditions,> 99%
same,Release rate,"[3]; 10 mm-long devices, 200 μm implants per b165 (second listing in Table 5)",~30 µg/day
same,start of deviation from linear release,"[3]; ENG 1:4 and 1:1 drug to excipient ratios, depletion of drug",~50 days
same,duration of sustained release with zero-order kinetics,[3]; ENG 2:1 ratio with castor oil or sesame oil,approximately 300 days
same,sustained period of release at about 30 μg/day,"[3]; exemplary device, in vitro conditions",up to 180 days
same,duration of linear release profile in vitro,"[3]; exemplary formulations, summary statement",230 days
same,Daily RR,"[3]; segmented implant: ENG:sesame oil 2:1 (10 mm, 200 μm) + TAF base:castor oil 2:1 (40 mm, 70 μm)",26.2 ± 7.1 µg/day
same,Daily RR,"[3]; segmented implant: ENG:sesame oil 2:1 (10 mm, 200 μm) + TAF base:sesame oil 2:1 (40 mm, 70 μm)",26.3 ± 6.7 µg/day
same,duration of zero-order release from segmented implants,[3]; segmented implants of TAF with LNG or ENG,50 days
same,stability in vivo for 90 days,[4],99.5%
COc1cc2c(cc1Cc1cccc(Cl)c1F)c(=O)c(C(=O)O)cn2[C@H](CO)C(C)C [Elvitegravir],aqueous solubility,[5],low
"Nc1nc(=O)n([C@@H]2CS[C@H](COP(=O)(O)OP(=O)(O)OP(=O)(O)O)O2)cc1F [FTC-TP, FTC-triphosphate]",duration of sustained levels in PBMCs,[1],28 days
"C#C[C@]1(O)CC[C@H]2[C@@H]3CCC4=CC(=O)CC[C@@H]4[C@H]3CC[C@@]21CC [LNG, Levonorgestrel]",stability within an exemplary implant,[2]; tested at 240 days in in-vitro conditions,greater than 92%
same,stability in vivo for 90 days,[4],99.2%±0.1
